Results from BindingDB's records for doi:10.1021/jm060189a (Abbott Laboratories, 2006).

Target: Adenosine kinase (Rattus norvegicus, UniProt Q64640)
Assay: ADK Inhibition Assay
Conditions: pH 7.5; 23 °C
Procedure: ADK activity was monitored by a radiochemical assay, which measures the conversion of radioactive Ado ([U-14C] adenosine or [2-3H] adenosine) to AMP in the presence of ATP and MgCl2. The radioactivity incorporated was directly proportional to the conversion rate. The reaction was terminated by aliquoting the reaction mixture onto DE-81 anion exchange filter disks. The filter disks were then dried, washed, and counted. Bound radioactivity was determined by standard scintillation spectrometry at an efficiency of 55%.

Adenosine kinase, sequence (Q64640 whole entry): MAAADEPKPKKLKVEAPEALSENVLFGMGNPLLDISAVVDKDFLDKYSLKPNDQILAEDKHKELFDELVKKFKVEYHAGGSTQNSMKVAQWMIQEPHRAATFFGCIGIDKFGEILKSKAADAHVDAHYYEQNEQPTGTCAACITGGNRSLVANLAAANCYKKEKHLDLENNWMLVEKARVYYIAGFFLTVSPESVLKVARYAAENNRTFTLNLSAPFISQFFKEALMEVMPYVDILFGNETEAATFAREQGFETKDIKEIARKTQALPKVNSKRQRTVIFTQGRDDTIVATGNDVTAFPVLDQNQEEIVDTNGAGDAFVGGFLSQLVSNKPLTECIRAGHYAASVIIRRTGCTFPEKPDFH

IC50: > 1000 nM
Structure (SMILES): Cc1nc(N)c(-c2ccccc2)c(C#Cc2ccc(N(C)C)cc2)n1
